Data set [1] is described as follows: Viability of non-tumor fibroblast cell line. It is filed as cell-based. To be noted: human, IMR90 non-tumor fibroblasts; @5 µM. On the procedure:
(§1) The test compound was diluted in PBS.
(§2) Viability (%) tum orsphere form ation (%)

The test system of the next data set is IMR90 fibroblasts. Briefly: Viability of non-tumor fibroblast cell line. It is filed as cell-based. To be noted: IMR90 fibroblasts, 5 μM. On the procedure:
as §1, §2

Data set [2] concerns NPM1. Briefly: Western blot of NPM1 in OCI-AML3 cells. It is filed as cell-based. To be noted: for Densitometry values for NPM1: reduction: OCI-AML3, 10 μM. On the procedure: (§3) We next studied the impact of UCM-13369 in the genes and/or expression levels of NPM1 and NPM1 C+ pathway components (Figure 4A), including the positive regulation of c-Myc[34] and the negative regulation of FBXW7 and the pro-apoptotic CASP8.[35] […] The inhibition of NPM1 was also observed in MOLM13 cells expressing WT NPM1 (Figure S1B).
Assay (Bio-Rad Labo rato ries, Hercules, CA, USA) and 20 µg of total protein s was loaded onto 10% SDS-PAGE gels followed by transfer onto a nitrocellulose membrane. Blots were incubated with primary antibodies α-NPM1 (Abcam ), α-M YC (Cel l Signaling), α-FBXW7 ( Abcam) and an ti-mouse or anti-rabbit secondary antibodies (BD). An antibody to β-actin was used to check for equivalent protei n loading. Membranes were developed by enhanced chemiluminescenc e (Clarity Weste rn ECL substrate; Bio-Rad Laboratories ).
Densitometry was performed with Image Lab software, normalized to the signal of β-actin, and r-normalized with the control.
(§4) Proteomic analysis. A supplementary table (Excel file) includes all the data of the proteomic analysis, showing all the proteins identified, not only those ablated in the treated population, but also those found with different expression levels in both populations under study, and even those that were not detected in the control population but were detected in the treated population. Follows the image of a Venn diagram showing the number of proteins detected in each of the pop ulations and the proteins that converg e […]
2.3. NPM1 protein studies
DNA constructs. For recombinant expression, pET28a(+) vectors encoding the native, N-end pentameric domain (residues 1- 130) and the C-end domain (residues 225- 294) constructs of NPM1 –all of which contained a N -terminal 6xHis tag– were available at the lab.4 Site directed mutagenesis was p erfo rmed by polymerase chain reaction (PCR) using the pET28a-NPM1 C-end WT vector to obtain the NPM1 C-end AML mutant construct (NPM1 C-end C+). The following primers were designed: 5’ – […]
(1 picture or pasted object on this page, not shown here)

In data set [3] the test system is NPM1. Briefly: Western blot of NPM1 in MOLM13 cells. To be noted: MOLM13, 10 µM. It is filed as cell-based. The procedure: as §3
1. Figures S1 -S4and T ab les S1 , S2
Figure S1. (A) Dose-response curve of UCM-13369 in MCF-7, HCT-116 and IMR90 […]
(10 µM) in MOLM13 cells at 24 and 48 h. Densitometry values: reduction of 5% and […]
between NSG mice injected with OCI-AML3 cells, with and without UCM-13369 treatment (50 mg/kg). (D) IHC analysis of a poptotic cells in a representative kidney sample from OC I-AML 3 xenograft mice treat ed with DMSO (vehicle, top) vs . UCM-13369 treated mice (50 mg/kg, bottom) mice: H&E ( left) and cleav ed caspase- 3 (right). […]
as §4

The nature of data set [4]: Caspase-3 pathology analysis of treated mice. It is filed as in vivo. On the procedure:
Based on the encouraging results obtained in ex vivo models of AML, we further assessed the therapeutic potential of the new NPM1 inhibitor in vivo. Prior to the evaluation of the compound in an animal model of AML, in vivo pharmacokinetic studies were addressed. Following a single intraperitoneal administration of UCM-13369 at a dose of 25 mg/kg, levels of 200–600 μg/L were detected in mouse peripheral blood up to 6 h (Figure 6A). Plasma protein binding of the compound in mouse serum was measured using an equilibrium dialysis assay, indicating a bound fraction of 83 ± 1%. Next, the efficacy of the compound was evaluated in immunodeficient mice after injection of OCI-AML3-ffLuc-GFP cells as an AML animal model. […]
(D) IHC analysis of a poptotic cells in a representative kidney
sample from OC I-AML 3 xenograft mice treat ed with DMSO (vehicle, top) vs . UCM-
13369 treated mice (50 mg/kg, bottom) mice: H&E ( left) and cleav ed caspase- 3 (right).
Scale bar: 100 μm. (E ) Dose-response curve of UCM-13369 in human renal proximal

The values that follow come from paper PMC11134387, “Cancer-Stem-Cell Phenotype-Guided Discovery of a Microbiota-Inspired Synthetic Compound Targeting NPM1 for Leukemia” (JACS Au, 2024).

In turn, `COc1ccc(C2Cc3[nH]c4ccccc4c3C(CCNCC3CC3)C2N)cc1` (stereo not drawn) [4b, 4-{2-[(Cyclopropylmethyl)amino]ethyl}-2-(4-methoxyphenyl)-2,3,4,9-tetrahydro-1H-carbazol-3-amine] registered a viability at 48 h, 5 µM in data set [1] of 100%. In the data set with IMR90 fibroblasts, the “Toxicity in nontumor cells (in words)” value was “not toxic”. The “Densitometry values for NPM1: reduction” value in the data set with NPM1 [2] (24 h) was determined as 50%; with NPM1 [2] (48 h), 70%. For the same compound, the “NPM1 levels (in words)” value in the data set on NPM1 [2] (OCI-AML3, qPCR and Western blot) is “reduced levels”. The “Densitometry values (NPM1): reduction” value in the data set with NPM1 [3] (24 h) is 5%; in the data set with NPM1 [3] (48 h), 44%. The “Caspase-3 cleavage in kidney (in words)” value in data set [4] (50 mg/kg) is recorded as “some caspase-3 cleavage”. The “Toxicity in bone marrow and liver, caspase-3 pathology (in words)” value in data set [4] (data not shown) is “absence of toxicity”.
